Test results published in patent US20230265151A1, “GIP/GLP1 CO-AGONIST COMPOUNDS” (priority 2020, published 2023).
Read-outs that look alike come from different tables or passages of the source.

Columns and labels:
[1] = target: T1, hGIPR (Homo sapiens, UniProt P48546); assay: Functional cAMP formation (HTRF) in HEK-293 clonal cells expressing hGIPR, 0.1% bovine casein, without or with 1.0% human serum albumin; format: cell-based; settings: 37° C.; for EC50: read-out: hGIPR EC50, nM (SEM, n); for Emax: read-out: hGIPR Emax, % ± SEM
T1 construct: expressed in transfected cells
T1 sequence (P48546 22-466): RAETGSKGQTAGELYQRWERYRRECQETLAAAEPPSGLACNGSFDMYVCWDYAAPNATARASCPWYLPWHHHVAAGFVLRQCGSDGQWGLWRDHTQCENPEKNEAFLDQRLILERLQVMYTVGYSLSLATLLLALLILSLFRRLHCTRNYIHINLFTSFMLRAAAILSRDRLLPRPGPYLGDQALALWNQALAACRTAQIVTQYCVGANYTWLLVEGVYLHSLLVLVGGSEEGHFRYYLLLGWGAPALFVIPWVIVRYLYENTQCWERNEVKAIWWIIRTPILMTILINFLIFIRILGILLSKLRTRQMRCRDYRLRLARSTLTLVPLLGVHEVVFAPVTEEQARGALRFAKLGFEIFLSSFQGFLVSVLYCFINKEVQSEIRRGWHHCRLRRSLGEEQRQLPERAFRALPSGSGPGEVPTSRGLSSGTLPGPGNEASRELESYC
How it was run: (§1)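 Readings of the HTRF 665/620 nm ratio, which falls as cAMP rises, were converted to nM cAMP using a standard curve after 30 min peptide exposure at 37° C.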

[2] = target: T2, human GIP receptor (hGIPR) (Homo sapiens, UniProt P48546); assay: [125I]-GIP binding, SPA with membranes of CHO cells expressing hGIPR; settings: human GIPR; geometric mean (SEM, n); read-out: Binding Affinity Ki, nM (SEM, n) hGIPR
T2 construct: expressed in transfected cells; crude membranes
T2 sequence (P48546 22-466): T1 sequence (P48546 22-466)

[3] = target: T3, hGCGR (Homo sapiens, UniProt P47871); assay: Functional cAMP formation (HTRF) in HEK-293 clonal cells expressing hGCGR, 0.1% bovine casein, without or with 1.0% human serum albumin; format: cell-based; settings: read-out: hGCGR EC50, nM (SEM, n)
T3 construct: expressed in transfected cells
How it was run: as §1

[4] = target: hGLP-1R (Homo sapiens, UniProt P43220); assay: Functional cAMP formation (HTRF) in HEK-293 clonal cells expressing hGLP-1R, 0.1% bovine casein, without or with 1.0% human serum albumin; format: cell-based; set-up: expressed in transfected cells; settings: for Emax: read-out: hGLP-1R Emax, % ± SEM; for EC50: cAMP, 0.1% bovine casein (no human serum albumin), geometric mean, read-out: hGLP-1R EC50, nM (SEM, n)
How it was run: as §1

[5] = HEK293, cAMP, 0.1% bovine casein and 1.0% human serum albumin, percent of maximal response to GIP(1-42)NH2
[6] = cAMP, 0.1% bovine casein (no human serum albumin), geometric mean
[7] = cAMP, 37° C., 0.1% bovine casein (no human serum albumin), geometric mean
[8] = cAMP, 37° C., 0.1% bovine casein and 1.0% human serum albumin, geometric mean (SEM, n)
[9] = HEK293, cAMP, 37° C., 0.1% bovine casein and 1.0% human serum albumin, percent of maximal response to GLP-1(7-36)NH2
[10] = HEK293, cAMP, 0.1% bovine casein, percent of maximal response to GIP(1-42)NH2, arithmetic mean

hGLP-1R, sequence (P43220 24-463): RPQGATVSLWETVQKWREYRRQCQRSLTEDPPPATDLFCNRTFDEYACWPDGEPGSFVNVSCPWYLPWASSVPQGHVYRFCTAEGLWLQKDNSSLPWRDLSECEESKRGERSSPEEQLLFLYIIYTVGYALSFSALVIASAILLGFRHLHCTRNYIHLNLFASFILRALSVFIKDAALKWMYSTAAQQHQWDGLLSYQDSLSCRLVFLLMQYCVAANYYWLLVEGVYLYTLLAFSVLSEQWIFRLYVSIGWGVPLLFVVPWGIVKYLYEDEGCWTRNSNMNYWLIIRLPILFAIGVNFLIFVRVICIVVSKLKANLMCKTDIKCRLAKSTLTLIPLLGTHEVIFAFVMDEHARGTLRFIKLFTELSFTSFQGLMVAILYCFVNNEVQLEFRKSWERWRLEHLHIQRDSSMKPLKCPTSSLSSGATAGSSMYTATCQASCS
T3 sequence (P47871 26-477): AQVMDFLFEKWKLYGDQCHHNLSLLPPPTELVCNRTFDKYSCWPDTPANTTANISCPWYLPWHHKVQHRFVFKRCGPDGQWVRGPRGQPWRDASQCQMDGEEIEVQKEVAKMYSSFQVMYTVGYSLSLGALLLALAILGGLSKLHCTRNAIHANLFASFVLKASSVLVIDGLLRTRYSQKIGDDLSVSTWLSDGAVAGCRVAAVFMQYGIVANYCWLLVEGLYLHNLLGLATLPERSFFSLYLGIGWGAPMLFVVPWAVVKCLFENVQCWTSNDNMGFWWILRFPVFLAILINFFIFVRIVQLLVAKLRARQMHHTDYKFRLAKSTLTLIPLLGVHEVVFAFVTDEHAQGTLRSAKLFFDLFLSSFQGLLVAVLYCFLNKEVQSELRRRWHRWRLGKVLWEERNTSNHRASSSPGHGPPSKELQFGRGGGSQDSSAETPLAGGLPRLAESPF

SMILES | EC50 ([1]; 0.1% bovine casein and 1.0% human serum albumin, geometric mean) | Emax ([1]; HEK293, 0.1% bovine casein and 1.0% human serum albumin, percent of maximal response to GIP(1-42)NH2) | Emax ([1]; HEK293, percent of maximal response to GIP(1-42)NH2, 0.1% bovine casein, arithmetic mean) | Ki [2] | EC50 ([3]; 0.1% bovine casein and 1.0% human serum albumin, 37° C., geometric mean) | EC50 ([3]; cAMP, incubated at 37° C., 0.1% bovine casein (no human serum albumin), geometric mean) | Emax ([4]; HEK293, 0.1% bovine casein and 1.0% human serum albumin, 37° C., percent of maximal response to GLP-1(7-36)NH2) | Emax ([4]; HEK293, percent of maximal response to GLP-1(7-36)NH2, 37° C., 0.1% bovine casein, arithmetic mean) | EC50 ([4]; incubated at 37° C.) | Emax [1, 5] | EC50 [1, 6] | EC50 [3, 7] | EC50 [3, 8] | Emax [4, 9] | EC50 ([4]; 37° C.) | Emax [1, 10] | EC50 ([1]; cAMP, 0.1% bovine casein and 1.0% human serum albumin, geometric mean (SEM, n))
CCCC[C@H](NC(=O)[C@H](CC(=O)O)NC(=O)[C@H](CO)NC(=O)[C@@H](NC(=O)[C@](C)(Cc1ccccc1F)NC(=O)[C@@H](NC(=O)CNC(=O)[C@H](CCC(=O)O)NC(=O)C(C)(C)NC(=O)[C@@H](N)Cc1ccc(O)cc1)[C@@H](C)O)[C@@H](C)O)C(=O)N[C@@H](CO)C(=O)N[C@H](C(=O)N[C@@](C)(CC(C)C)C(=O)N[C@@H](CC(C)C)C(=O)N[C@@H](CC(=O)O)C(=O)N[C@@H](CCCN)C(=O)N[C@@H](CCCCNC(=O)COCCOCCNC(=O)COCCOCCNC(=O)CC[C@H](NC(=O)CCCCCCCCCCCCC(=O)O)C(=O)O)C(=O)N[C@@H](C)C(=O)N[C@@H](CCC(N)=O)C(=O)NC(C)(C)C(=O)N[C@@H](CCC(=O)O)C(=O)N[C@@H](Cc1ccccc1)C(=O)N[C@H](C(=O)N[C@H](CCC(=O)O)C(=O)N[C@@](C)(Cc1ccc(O)cc1)C(=O)N[C@@H](CC(C)C)C(=O)N[C@H](C(=O)N[C@@H](CCC(=O)O)C(=O)NCC(=O)NCC(=O)N[C@@H](CCCCNC(=O)COCCOCCNC(=O)COCCOCCNC(=O)CC[C@H](NC(=O)CCCCCCCCCCCCC(=O)O)C(=O)O)C(=O)N[C@@H](CO)C(=O)N[C@@H](CO)C(=O)NCC(=O)N[C@@H](C)C(=O)N1CCC[C@H]1C(=O)N1CCC[C@H]1C(=O)N1CCC[C@H]1C(=O)N[C@@H](CO)C(N)=O)[C@@H](C)CC)[C@@H](C)CC)[C@@H](C)CC [Example 60] | 1.2 nM | 89.4 ± 4.57% | 94 ± 6.07% | 0.11 nM | > 9950 nM | > 9950 nM | 111 ± 3.97% | 97.2 ± 4.28% | 0.19 nM | – | – | – | – | – | – | – | –
CCCCCCCCCCCC(=O)N[C@@H](CCC(=O)NCCOCCOCC(=O)NCCOCCOCC(=O)NCCCC[C@H](NC(=O)[C@H](CCCN)NC(=O)[C@H](CC(=O)O)NC(=O)[C@H](CC(C)C)NC(=O)[C@](C)(CC(C)C)NC(=O)[C@@H](NC(=O)C(C)(C)NC(=O)[C@H](Cc1ccncc1)NC(=O)[C@H](CC(=O)O)NC(=O)[C@H](CO)NC(=O)[C@@H](NC(=O)[C@](C)(Cc1ccccc1F)NC(=O)[C@@H](NC(=O)CNC(=O)[C@H](CCC(=O)O)NC(=O)C(C)(C)NC(=O)[C@@H](N)Cc1ccc(O)cc1)[C@@H](C)O)[C@@H](C)O)[C@@H](C)CC)C(=O)N[C@@H](C)C(=O)N[C@@H](CCC(N)=O)C(=O)NC(C)(C)C(=O)N[C@@H](CCC(=O)O)C(=O)N[C@@H](Cc1ccccc1)C(=O)N[C@H](C(=O)N[C@H](CCC(=O)O)C(=O)N[C@@](C)(Cc1ccc(O)cc1)C(=O)N[C@@H](CC(C)C)C(=O)N[C@H](C(=O)N[C@@H](CCCCNC(=O)COCCOCCNC(=O)COCCOCCNC(=O)CC[C@H](NC(=O)CCCCCCCCCCC)C(=O)O)C(=O)NCC(=O)NCC(=O)N1CCC[C@H]1C(=O)N[C@@H](CO)C(=O)N[C@@H](CO)C(=O)NCC(=O)N[C@@H](C)C(=O)N1CCC[C@H]1C(=O)N1CCC[C@H]1C(=O)N1CCC[C@H]1C(=O)N[C@@H](CO)C(N)=O)[C@@H](C)CC)[C@@H](C)CC)C(=O)O [Example 334] | – | – | – | 0.0195 nM | – | – | – | – | – | 89% | 0.00987 nM | > 9950 nM | > 9950 nM | 105% | 0.131 nM | – | –
CC[C@H](C)[C@H](NC(=O)[C@H](CC(C)C)NC(=O)[C@](C)(Cc1ccc(O)cc1)NC(=O)[C@@H](CCC(=O)O)NC(=O)[C@@H](NC(=O)[C@H](Cc1ccccc1)NC(=O)[C@H](CCC(=O)O)NC(=O)C(C)(C)NC(=O)[C@H](CCC(N)=O)NC(=O)[C@H](C)NC(=O)[C@H](CCCCNC(=O)COCCOCCNC(=O)CCCCCCCNC(=O)CCCCCCCCCCCCC(=O)O)NC(=O)[C@H](CCCN)NC(=O)[C@H](CC(=O)O)NC(=O)[C@H](CC(C)C)NC(=O)[C@](C)(CC(C)C)NC(=O)[C@@H](NC(=O)C(C)(C)NC(=O)[C@H](Cc1ccncc1)NC(=O)[C@H](CC(=O)O)NC(=O)[C@H](CO)NC(=O)[C@@H](NC(=O)[C@](C)(Cc1ccccc1F)NC(=O)[C@@H](NC(=O)CNC(=O)[C@H](CCC(=O)O)NC(=O)C(C)(C)NC(=O)[C@@H](N)Cc1ccc(O)cc1)[C@@H](C)O)[C@@H](C)O)[C@@H](C)CC)[C@@H](C)CC)C(=O)N[C@@H](CCCCNC(=O)COCCOCCNC(=O)CCCCCCCNC(=O)CCCCCCCCCCCCC(=O)O)C(=O)NCC(=O)NCC(=O)N1CCC[C@H]1C(=O)N[C@@H](CO)C(=O)N[C@@H](CO)C(=O)NCC(=O)N[C@@H](C)C(=O)N1CCC[C@H]1C(=O)N1CCC[C@H]1C(=O)N1CCC[C@H]1C(=O)N[C@@H](CO)C(N)=O [Example 465] | – | – | – | 0.0464 nM | – | – | – | – | – | 94.4% | 0.0174 nM | > 9950 nM | > 9950 nM | 93.3% | 0.413 nM | 94.9% | –
CC[C@H](C)[C@H](NC(=O)[C@H](CC(C)C)NC(=O)[C@](C)(Cc1ccc(O)cc1)NC(=O)[C@H](CCCCNC(=O)COCCOCCNC(=O)COCCOCCNC(=O)CC[C@H](NC(=O)CCCCCCCCCCCCC(=O)O)C(=O)O)NC(=O)[C@@H](NC(=O)[C@H](Cc1ccccc1)NC(=O)[C@H](CCCN)NC(=O)C(C)(C)NC(=O)[C@H](CCC(N)=O)NC(=O)[C@H](C)NC(=O)[C@H](CCC(N)=O)NC(=O)[C@H](CCCN)NC(=O)[C@H](CC(=O)O)NC(=O)[C@H](CC(C)C)NC(=O)[C@](C)(CC(C)C)NC(=O)[C@@H](NC(=O)C(C)(C)NC(=O)[C@@H](NC(=O)[C@H](CC(=O)O)NC(=O)[C@H](CO)NC(=O)[C@@H](NC(=O)[C@](C)(Cc1ccccc1F)NC(=O)[C@@H](NC(=O)CNC(=O)[C@H](CCC(=O)O)NC(=O)C(C)(C)NC(=O)[C@@H](N)Cc1ccc(O)cc1)[C@@H](C)O)[C@@H](C)O)C(C)C)[C@@H](C)CC)[C@@H](C)CC)C(=O)N[C@@H](CCCCNC(=O)COCCOCCNC(=O)COCCOCCNC(=O)CC[C@H](NC(=O)CCCCCCCCCCCCC(=O)O)C(=O)O)C(=O)NCC(=O)NCC(=O)N1CCC[C@H]1C(=O)N[C@@H](CO)C(=O)N[C@@H](CO)C(=O)NCC(=O)N[C@@H](C)C(=O)N1CCC[C@H]1C(=O)N1CCC[C@H]1C(=O)N1CCC[C@H]1C(=O)N[C@@H](CO)C(N)=O [Example 448] | – | – | – | 0.0314 nM | – | – | – | – | – | – | 0.0164 nM | > 9950 nM | > 9950 nM | – | 0.157 nM | 105% | 1.41 nM
